From patent US20260325487A1 (BS BIOTECHNA SPOLKA AKCYJNA, priority 2023, published 2026)
Like-named read-outs stand apart in the source and are kept apart here.

How the values were obtained:
Type in all cases: cell-based
[1] = tested on: SK-MES-1; experiment: SRB anti-proliferative assay, SK-MES-1, with CalcuSyn combination index (Example 1); conditions: Homo sapiens, SK-MES-1, 72 h, read-out: Zah. (inhibition of proliferation)
Experimental: (§1) Cells were thawed from ampoules stored in liquid nitrogen and cultured in petri dishes in appropriate culture medium according to Table 2, in a humidified 5% CO2 atmosphere at 37° C. Cells were passaged twice weekly using EDTA-Trypsin solution, pH 8. Counted cells with a viability of at least 90% as assessed with Trypan-Blue solution were used for anti-proliferative assays.
(§2) Twenty-four hours before the addition of the test compounds/combinations, cells were seeded into 384-well plates at 50 μL/well and a density of 10^3 cells/well, in the appropriate culture medium.
(§3) Solutions of the compounds were diluted in the test medium-RPMI-1640 and Opti-MEM in a 1:1 ratio, and the medium was supplemented with 2 mM glutamine and 5% fetal bovine serum FBS. After 72 h, colourimetric assessment of cell growth was performed by SRB. […] Unbound dye was removed by washing the plates (4×) in 1% (v/v) acetic acid, and protein-bound dye was extracted with 10 mM unbuffered Tris base and the optical density (A=540 nm) was determined in a BioTek Synergy H4 Hybrid computer microplate reader (BioTek Instruments USA). The entire washing/staining procedure was performed using a BioTek EL406 washing station (BioTek Instruments USA). The raw absorbance results were analysed in Microsoft Excel software using the formula:
(§4) [formula] • Where: • % Zahlnh-inhibition of proliferation • Am—absorbance of wells without cells (medium) • Ak—absorbance of control wells (cells treated with pure culture medium) • Ap—absorbance of wells treated with compounds
(§5) Each compound at the indicated concentrations was tested in triplicate in one experiment. Each experiment was repeated three times. Data analysis was supplemented with synergy assessment using CalcuSyn software. […] A CI value below 0.8 indicates synergism, 0.8-1.2 an additive effect, above 1.2 an antagonism.

[2] = tested on: NCI-H226; experiment: SRB anti-proliferative assay, NCI-H226, with CalcuSyn combination index (Example 1); conditions: Homo sapiens, NCI-H226, 72 h, read-out: Zah. (inhibition of proliferation)
Experimental: as §1, §2, §3, §4, §5

[3] = tested on: 8MGBA; experiment: SRB anti-proliferative assay, 8MGBA, molecular combination and nanoparticles, with combination index (Example III); conditions: Homo sapiens, 8-MG-BA, 72 h
Experimental: (§6) Cells were thawed from ampoules stored in liquid nitrogen and cultured in petri dishes in the appropriate culture medium according to Table 16, in a humidified 5% CO2 atmosphere at 37° C. Cells were passaged twice weekly using EDTA-Trypsin solution, pH 8, as a separating agent. Counted cells with a viability of at least 90% as assessed with Trypan-Blue solution were used for anti-proliferation assays.
(§7) Twenty-four hours before the addition of the test compounds/combinations, cells were seeded into 384-well plates at 50 μL/well and a density of 10^3 cells/well, in the appropriate culture medium. […] Solutions of the compounds were diluted in the test medium—RPMI-1640 and Opti-MEM in a 1:1 ratio, and the medium was supplemented with 2 mM glutamine and 5% fetal bovine serum FBS.
as §3, with “After” for “Solutions of the compounds were diluted in the test medium-RPMI-1640 and Opti-MEM in a 1:1 ratio, and the medium was supplemented with 2 mM glutamine and 5% fetal bovine serum FBS. After”
as §4, §5

[4] = tested on: LN229; experiment: SRB anti-proliferative assay, LN229, molecular combination and nanoparticles, with combination index (Example III); conditions: Homo sapiens
Experimental: as §6, §7
as §3, with “After” for “Solutions of the compounds were diluted in the test medium-RPMI-1640 and Opti-MEM in a 1:1 ratio, and the medium was supplemented with 2 mM glutamine and 5% fetal bovine serum FBS. After”
as §4, §5

[5] = LN-229, 72 h, read-out: Zah. (inhibition of proliferation)
[6] = LN-229, read-out: Zah. (inhibition of cell proliferation)

`C=CCNC1=C2C[C@@H](C)C[C@H](OC)[C@H](O)[C@@H](C)/C=C(\C)[C@H](OC(N)=O)[C@@H](OC)/C=C\C=C(/C)C(=O)NC(=CC1=O)C2=O` [17AAG, 17-AAG (tanespimycin)] showed an inhibition at 0.0031 µM [1] of 9.2%, an inhibition at 0.01 µM [1] of 12.7% and an inhibition at 0.03 µM [1] of 55.1%. For the same compound, the inhibition at 0.1 µM [1] was 80%, the inhibition at 0.3124 µM [1] was 85.2% and the inhibition at 1 µM [1] was 86.5%. The inhibition at 3.1392 µM [1] was 86.9%, the inhibition at 10 µM [1] was 87% and the inhibition at 0.0031 µM [2] was 19.3%. The inhibition at 0.01 µM [2] was 27.3%, the inhibition at 0.03 µM [2] was 32% and the inhibition at 0.1 µM [2] was 43.8%. The inhibition at 0.3124 µM [2] was 54.8%, the inhibition at 1 µM [2] was 60.4% and the inhibition at 3.1392 µM [2] was 71.9%. The inhibition at 10 µM [2] was 72.6%, the inhibition at 0.0003163 µM ([3]; read-out: Zah. (inhibition of proliferation), 17AAG 0.3163 nM, Tables 18a/19a) was -3.9% and the inhibition at 0.0003163 µM ([3]; read-out: Zah. (inhibition of proliferation), 17AAG 0.3163 nM, Tables 21a/22a) was 6%. It also gave an inhibition at 0.001 µM ([3]; read-out: Zah. (inhibition of proliferation), 17AAG 1 nM, Tables 18a/19a) of 9.8%, an inhibition at 0.001 µM ([3]; read-out: Zah. (inhibition of proliferation), 17AAG 1 nM, Tables 21a/22a) of 15.7% and an inhibition at 0.0032 µM ([3]; read-out: Zah. (inhibition of proliferation), 17AAG 3.2 nM, Tables 18a/19a) of 64.9%. It also gave an inhibition at 0.0032 µM ([3]; read-out: Zah. (inhibition of proliferation), 17AAG 3.2 nM, Tables 21a/22a) of 4.7%, an inhibition at 0.01 µM ([3]; read-out: Zah. (inhibition of proliferation), 17AAG 10 nM, Tables 18a/19a) of 89.5% and an inhibition at 0.01 µM ([3]; read-out: Zah. (inhibition of proliferation), 17AAG 10 nM, Tables 21a/22a) of 7.8%. It also gave an inhibition at 0.0316 µM ([3]; read-out: Zah. (inhibition of proliferation), 17AAG 31.6 nM, Tables 18a/19a) of 88.5%, an inhibition at 0.0316 µM ([3]; read-out: Zah. (inhibition of proliferation), 17AAG 31.6 nM, Tables 21a/22a) of 20.1% and an inhibition at 0.1 µM ([3]; read-out: Zah. (inhibition of proliferation), 17AAG 100 nM, Tables 18a/19a) of 84.3%. It also gave an inhibition at 0.1 µM ([3]; read-out: Zah. (inhibition of proliferation), 17AAG 100 nM, Tables 21a/22a) of 37.4%, an inhibition at 0.3163 µM ([3]; read-out: Zah. (inhibition of proliferation), 17AAG 316.3 nM, Tables 18a/19a) of 86% and an inhibition at 0.3163 µM ([3]; read-out: Zah. (inhibition of proliferation), 17AAG 316.3 nM, Tables 21a/22a) of 64.6%. For the same compound, the inhibition at 1 µM ([3]; read-out: Zah. (inhibition of proliferation), 17AAG 1000 nM, Tables 18a/19a) was 91.9%, the inhibition at 1 µM ([3]; read-out: Zah. (inhibition of proliferation), 17AAG 1000 nM, Tables 21a/22a) was 81.1% and the inhibition at 0.0003163 µM ([3]; read-out: Zah. (inhibition of proliferation), 72 h, 17AAG 0.3163 nM) was -3.9%. The inhibition at 0.001 µM ([3]; read-out: Zah. (inhibition of proliferation), 72 h, 17AAG 1 nM) was 9.8%, the inhibition at 0.0032 µM ([3]; read-out: Zah. (inhibition of proliferation), 72 h, 17AAG 3.2 nM) was 64.9% and the inhibition at 0.01 µM ([3]; read-out: Zah. (inhibition of proliferation), 72 h, 17AAG 10 nM) was 89.5%. For the same compound, the inhibition at 0.0316 µM ([3]; read-out: Zah. (inhibition of proliferation), 72 h, 17AAG 31.6 nM) was 88.5%, the inhibition at 0.1 µM ([3]; read-out: Zah. (inhibition of proliferation), 72 h, 17AAG 100 nM) was 84.3% and the inhibition at 0.3163 µM ([3]; read-out: Zah. (inhibition of proliferation), 72 h, 17AAG 316.3 nM) was 86%. The inhibition at 1 µM ([3]; read-out: Zah. (inhibition of proliferation), 72 h, 17AAG 1000 nM) was 91.9%, the inhibition at 0.0032 µM [4, 5] was 3.3% and the inhibition at 0.01 µM [4, 5] was 3.1%. For the same compound, the inhibition at 0.0316 µM [4, 5] was 18.4%, the inhibition at 0.1 µM [4, 5] was 28.9% and the inhibition at 0.3163 µM [4, 5] was 38.7%. It also gave an inhibition at 1 µM [4, 5] of 62.9%, an inhibition at 3.1625 µM [4, 5] of 71.6% and an inhibition at 10.0005 µM [4, 5] of 81.5%. For the same compound, the inhibition at 0.0032 µM [4, 6] was 3.3%, the inhibition at 0.01 µM [4, 6] was 3.1% and the inhibition at 0.0316 µM [4, 6] was 18.4%. It also gave an inhibition at 0.1 µM [4, 6] of 28.9%, an inhibition at 0.3163 µM [4, 6] of 38.7% and an inhibition at 1 µM [4, 6] of 62.9%. The inhibition at 3.1625 µM [4, 6] was 71.6% and the inhibition at 10.0005 µM [4, 6] was 81.5%.
